Where “and” joins values, the source holds several entries; their conditions need not be identical. Equal entries are not always repeated. Where two headings read alike, the source gives them in different places.

The source of these data is paper PMC10406626, “Structural displacement model of chitooligosaccharide transport through chitoporin” (The Journal of Biological Chemistry, 2023).

The subject of one assay is CymA. Further details: method as in PMID 10455198. To be noted: cited from earlier work.
The test system of another assay is ScrY. Further details: method as in PMID 9691119. The note with it: cited from earlier work.
Assay [1] has as its target N-terminally truncated VhChiP (lacking the N-plug) (Vibrio campbellii (formerly Vibrio harveyi) ATCC BAA-1116). Put plainly: crystal structure; truncated VhChiP, ligand-free (C121, a single trimer per asymmetric unit) and cocrystallised with chitohexaose (P1, two trimers per asymmetric unit).
Assay [2] has as its target T1, truncated VhChiP (Vibrio campbellii, UniProt L0RVU0). Put plainly: Single-channel BLM recordings, chitohexaose titration of truncated VhChiP (without or with N-plug peptide). In kind it is binding. The note with it: for K (equilibrium binding constant) / koff / kon: truncated. Here is the method: Single-channel analysis using the BLM reconstitution technique was performed as described previously ([13], [34], [35]). The lipid bilayer cuvette consisted of a 25-μm thick Teflon film sandwiched between two chambers. […] The chambers were filled with electrolyte solution and Ag/AgCl electrodes immersed on either side of the Teflon film. The electrolyte used was 1 M KCl buffered with 20 mM Hepes, pH 7.4. 1,2-diphytanoyl-sn-glycero-3-phosphatidylcholine (Avanti Polar Lipids) was used for lipid bilayer formation. To form the bilayer, the aperture was first prepainted with 1 μl of 1% (v/v) hexadecane in pentane (Sigma-Aldrich). One of the electrodes was used as the ground (cis), while the other electrode (trans) was connected to the head-stage of an Axopatch 200B amplifier (Axon Instruments). VhChiP (20–100 ng μL^−1) was added to the solution on the cis side of the lipid membrane. At applied transmembrane potentials of ±100 mV, a single channel was frequently inserted within a few minutes. The protein solution in the chamber was then gently diluted by multiple additions of the working electrolyte, to prevent multiple insertions. Single-channel current measurements were performed in the voltage-clamp mode, with the internal filter set at 10 kHz. Amplitude, probability, and single-channel analyses were performed using pClamp v.10.5 software (https://www.moleculardevices.com/products/axon-patch-clamp-system/acquisition-and-analysis-software/pclamp-software-suite) (all from Molecular Devices). […] Occlusions of ion flow caused by sugar diffusion through the inserting channel were usually recorded for 2 min. To determine the kinetics of sugar translocation on individual subunit blockages, discrete concentrations of chitohexaose (0, 0.25, 0.5, and 1.0 μM) was tested. To study channel blocking behaviors of the N-plug, the first nine amino acids (Asp^1-Lys^9) (the so-called N-plug peptide) that plugged the channel was synthesized (GenScript). Two concentrations of the peptide (10 and 40 μM) were added to either the cis or the trans side of the chamber, containing with or without 1 μM of chitohexaose on the cis side.
(§1) The equilibrium binding constant K (M^-1) was estimated from the decrease in the ion conductance in the presence of increasing concentrations of sugar using the following equation ([36]):(1) Gmax−Gc/Gmax=Imax−Ic/Imax=K[C]/(K[C]+1)
(§2) Gmax is the average conductance of the fully open VhChiP channel, and Gc is the average conductance at a given concentration [c] of chitohexaose. Imax is the initial current through the fully open channel in the absence of sugar, and Ic is the current at a particular sugar concentration. The titration experiments were also analyzed using double reciprocal plots.

Another assay concerns maltoporin (LamB). On the set-up: method as in PMID 11415317. The note with it: cited from earlier work.
Assay [3] deals with T2, VhChiP D1A mutant (Vibrio campbellii, UniProt L0RVU0, D26A).
T2 sequence (L0RVU0 26-375 D26A): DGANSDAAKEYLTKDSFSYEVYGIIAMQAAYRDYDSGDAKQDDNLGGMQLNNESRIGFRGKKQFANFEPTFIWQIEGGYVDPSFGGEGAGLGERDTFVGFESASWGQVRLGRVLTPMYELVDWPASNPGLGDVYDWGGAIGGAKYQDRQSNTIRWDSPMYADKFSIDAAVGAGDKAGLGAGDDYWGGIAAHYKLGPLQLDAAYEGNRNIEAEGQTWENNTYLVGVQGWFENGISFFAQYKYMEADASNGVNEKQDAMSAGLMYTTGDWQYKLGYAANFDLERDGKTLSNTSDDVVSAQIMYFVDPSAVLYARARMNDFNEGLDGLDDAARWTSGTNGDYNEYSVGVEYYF
In words: Single-channel BLM recordings, chitohexaose titration of D1A mutant. In kind it is binding. To be noted: sugar on cis side. Here is the method:
Single-channel analysis using the BLM reconstitution technique was performed as described previously ([13], [34], [35]). The lipid bilayer cuvette consisted of a 25-μm thick Teflon film sandwiched between two chambers. […] The chambers were filled with electrolyte solution and Ag/AgCl electrodes immersed on either side of the Teflon film. The electrolyte used was 1 M KCl buffered with 20 mM Hepes, pH 7.4. 1,2-diphytanoyl-sn-glycero-3-phosphatidylcholine (Avanti Polar Lipids) was used for lipid bilayer formation. To form the bilayer, the aperture was first prepainted with 1 μl of 1% (v/v) hexadecane in pentane (Sigma-Aldrich). One of the electrodes was used as the ground (cis), while the other electrode (trans) was connected to the head-stage of an Axopatch 200B amplifier (Axon Instruments). VhChiP (20–100 ng μL^−1) was added to the solution on the cis side of the lipid membrane. At applied transmembrane potentials of ±100 mV, a single channel was frequently inserted within a few minutes. […] Occlusions of ion flow caused by sugar diffusion through the inserting channel were usually recorded for 2 min. […]
Gmax is the average conductance of the fully open VhChiP channel, and Gc is the average conductance at a given concentration [c] of chitohexaose. […] The titration experiments were also analyzed using double reciprocal plots.

The subject of assay [4] is EcChiP. In words: Literature single-channel analysis, EcChiP. In kind it is binding, E. coli. To be noted: same sugar.
For assay [5], the system named is EcChiP. Further details: method as in PMID 27226611, PMID 28972167. The note with it: single-channel analysis; cited from earlier work.
Assay [6] concerns the target truncated VhChiP mixed with the N-plug peptide (Vibrio campbellii, UniProt L0RVU0). In words: ITC, chitohexaose into truncated VhChiP mixed with N-plug peptide. In kind it is binding. To be noted: 25 °C, protein 20 μM, N-plug 5 μM. As for the experimental part:
(§3) ITC experiments were carried out at least three times using the MicroCal PEAQ-ITC (Malvern Instruments Ltd) at 25 ± 1 °C with a stirring speed of 500 rpm. For titration experiments, 40 μl of chitohexaose or the N-plug was titrated from a syringe into the 300 μl-calorimeter cells containing 0.05% (v/v) LDAO, 20 mM sodium phosphate buffer, pH 7.5, and protein solution. Injections (2 μl per injection) were repeated 19 times over 150-s intervals. The background was measured by injecting the corresponding ligand into the cell containing only the buffer. The ITC data were collected and analyzed using the MicroCal PEAQ-ITC analysis software (https://www.malvernpanalytical.com/en/support/product-support/software/microcal-peaq-itc-analysis-software-v141). The ITC profile obtained by injecting the corresponding ligand into the reaction cell containing buffer without VhChiP was subtracted from the […] dataset. The resultant data were fitted by a single-site binding model with the nonlinear least square algorithm.
On the technique in general: ITC needs no label: the signal is the heat of the interaction.

For assay [7], the target named is T2, VhChiP D1A mutant. In words: ITC, chitohexaose into D1A mutant. In kind it is binding. To be noted: 25 °C. As for the experimental part:
as §3

For assay [8], the target named is T1, truncated VhChiP. In words: ITC, chitohexaose into truncated VhChiP. The class given is binding. To be noted: 25 °C. Here is the method: as §3
The target of assay [9] is T3, WT VhChiP (Vibrio campbellii, UniProt L0RVU0).
T3 sequence (L0RVU0 26-375): T2 sequence (L0RVU0 26-375 D26A)
In words: ITC, chitohexaose into WT VhChiP. The class given is binding. The note with it: 25 °C. As for the experimental part:
as §3

Assay [10] addresses T3, WT VhChiP. In words: Single-channel BLM recordings, chitohexaose titration of WT VhChiP. The note with it: no N-plug peptide. The class given is binding. Here is the method: Single-channel analysis using the BLM reconstitution technique was performed as described previously ([13], [34], [35]). The lipid bilayer cuvette consisted of a 25-μm thick Teflon film sandwiched between two chambers. […] The chambers were filled with electrolyte solution and Ag/AgCl electrodes immersed on either side of the Teflon film. The electrolyte used was 1 M KCl buffered with 20 mM Hepes, pH 7.4. 1,2-diphytanoyl-sn-glycero-3-phosphatidylcholine (Avanti Polar Lipids) was used for lipid bilayer formation. To form the bilayer, the aperture was first prepainted with 1 μl of 1% (v/v) hexadecane in pentane (Sigma-Aldrich). One of the electrodes was used as the ground (cis), while the other electrode (trans) was connected to the head-stage of an Axopatch 200B amplifier (Axon Instruments). VhChiP (20–100 ng μL^−1) was added to the solution on the cis side of the lipid membrane. At applied transmembrane potentials of ±100 mV, a single channel was frequently inserted within a few minutes. The protein solution in the chamber was then gently diluted by multiple additions of the working electrolyte, to prevent multiple insertions. Single-channel current measurements were performed in the voltage-clamp mode, with the internal filter set at 10 kHz. Amplitude, probability, and single-channel analyses were performed using pClamp v.10.5 software (https://www.moleculardevices.com/products/axon-patch-clamp-system/acquisition-and-analysis-software/pclamp-software-suite) (all from Molecular Devices). To investigate sugar translocation, chitooligosaccharide was added to the cis side of the chamber at a final concentration of 5 μM. Occlusions of ion flow caused by sugar diffusion through the inserting channel were usually recorded for 2 min. To determine the kinetics of sugar translocation on individual subunit blockages, discrete concentrations of chitohexaose (0, 0.25, 0.5, and 1.0 μM) was tested. To study channel blocking behaviors of the N-plug, the first nine amino acids (Asp^1-Lys^9) (the so-called N-plug peptide) that plugged the channel was synthesized (GenScript). Two concentrations of the peptide (10 and 40 μM) were added to either the cis or the trans side of the chamber, containing with or without 1 μM of chitohexaose on the cis side.
as §1, §2

In the next assay the target is N-plug peptide (Vibrio campbellii, UniProt L0RVU0). In words: ITC, chitohexaose into synthesized N-plug peptide. The class given is binding. To be noted: 25 °C. As for the experimental part: as §3
Where [11] appears, read: sugar on cis side, N-plug peptide on trans side.
The mark [12] stands for this setting: sugar on cis side, no N-plug peptide.
[13] abbreviates: sugar on trans side, no N-plug peptide.

Consider cyclodextrin, for which the “binding constant (K)” value in the assay on CymA is on record as 31,300 M^−1.
Consider `OC[C@H]1O[C@@](CO)(O[C@H]2O[C@H](CO)[C@@H](O)[C@H](O)[C@H]2O)[C@@H](O)[C@@H]1O` [sucrose], for which the “binding constant (K)” value in the assay on ScrY was 80 M⁻¹.
As to “N-terminally truncated VhChiP (lacking the N-plug) (domain or fragment)”, the stoichiometry N – broadly, the number of molecules, sites or subunits per partner or assembly – in [1] was 3.
Turning to “N-plug peptide: synthesized peptide corresponding to the first nine residues (DGANSDAAK, Asp1-Lys9) of VhChiP”, the channel blocking events result with truncated VhChiP [2] (truncated channel, no sugar, peptide at 10 and 40 μM on trans side, +100 mV, 1 M KCl, 20 mM Hepes pH 7.4) is “rare and short-lived blocking events”.
In the case of maltohexaose, in the assay on maltoporin (LamB), the “binding constant (K)” value is 13,600 M^−1.
For the molecule `CC(=O)NC1C(O)OC(CO)C(OC2OC(CO)C(OC3OC(CO)C(OC4OC(CO)C(OC5OC(CO)C(OC6OC(CO)C(O)C(O)C6NC(C)=O)C(O)C5NC(C)=O)C(O)C4NC(C)=O)C(O)C3NC(C)=O)C(O)C2NC(C)=O)C1O` (stereo not drawn) [chitohexaose], the “K of D1A mutant less than WT channel” value at VhChiP D1A mutant [3] was 2.5 fold. The “K of EcChiP less than that of VhChiP” value in the assay on EcChiP [4] is recorded as “about 10 fold”. The K value in the assay with EcChiP [5] is 50,000 M^−1. The Kd (usually the free concentration of one partner at which half of the binding sites on the other are occupied at equilibrium, for simple one-to-one binding) in assay [6] was 2.9 ± 0.07 µM; at VhChiP D1A mutant [7], 1.2 ± 0.2 µM; at truncated VhChiP [8] (one-site binding fit), 10 ± 0.3 µM; at WT VhChiP [9] (one-site binding fit), 0.3 ± 0.06 µM; at N-plug peptide (N-plug 500 μM, no protein) it was 2600 ± 120 µM. The “n (site), stoichiometry” value in assay [6] is recorded as 2.3 ± 0.2; at VhChiP D1A mutant [7] it was 3.0 ± 0.1; at truncated VhChiP [8] it was 2.8 ± 0.1; at WT VhChiP [9], 3.2 ± 0.1; at N-plug peptide (N-plug peptide alone), 1.0 ± 0.02. In addition, the “reduction in the binding affinity, truncated vs WT” value on truncated VhChiP [2] (from Table 2) amounted to 22.3 fold. The “K (equilibrium binding constant)” value is “incalculable” at truncated VhChiP [2] (sugar on cis side, N-plug peptide on cis side); 255,000 M^−1 at truncated VhChiP [2] (setting [11]); 11,000 M^−1 on truncated VhChiP [2] (setting [12]); 23,000 M^−1 on truncated VhChiP [2] (setting [13]); 250,000 M^−1 on WT VhChiP [10] (WT, sugar on cis side); 240,000 M^−1 at WT VhChiP [10] (WT, sugar on trans side). Further, the koff (usually the rate constant with which the complex falls apart) was determined as 220 ± 10 s⁻¹ at truncated VhChiP [2] (setting [11]); 500 ± 100 s⁻¹ on truncated VhChiP [2] (setting [12]); 300 ± 100 s⁻¹ at truncated VhChiP [2] (setting [13]); 270 ± 400 s⁻¹ on WT VhChiP [10] (WT, sugar on cis side); 210 ± 500 s⁻¹ at WT VhChiP [10] (WT, sugar on trans side, read-out: koff). Moreover, the kon (usually the rate constant with which the complex forms) on truncated VhChiP [2] (setting [11]) is 5.6e+07 ± 100000 M⁻¹ s⁻¹; on truncated VhChiP [2] (setting [13]), 6.8e+06 ± 500000 M⁻¹ s⁻¹; at WT VhChiP [10] (WT, sugar on cis side, 1 M KCl, 20 mM Hepes pH 7.4, +100 mV), 68 ± 1.4 × 10^6 M^−1s^−1; at WT VhChiP [10] (WT, sugar on trans side, read-out: kon) it was 5e+07 ± 1.2e+06 M⁻¹ s⁻¹; at WT VhChiP [10] (pH 7.4, WT, sugar on cis side, 1 M KCl, 20 mM Hepes pH 7.4, +100 mV), 5.6e+07 ± 1e+07 M⁻¹ s⁻¹. The “τc (average residence time)” value at WT VhChiP [10] (WT, sugar on cis side) is 3.7 ± 0.3 ms and 3.7 ± 0.4 ms.
